Test results from patent US9816993B2, “Magnetically induced microspinning for super-detection and super-characterization of biomarkers and live cells” (THE REGENTS OF THE UNIVERSITY OF MICHIGAN, priority 2011, dated 2017).

Tested on: HeLa cell
Assay: Cell magnetorotation of a single HeLa cell: rotation period and morphology under toxic agents
Type: cell-based
Text: The Y axis is the normalized period, and the X axis is time in seconds. Lines show trend between connected points. For each graph, in the pictures above it, the bottom pictures show snapshots of the rotated cell at each indicated time, while the schematic pictures on top of it show the corresponding cell shapes (fixated cell not shown). Dark discs represent the cell cytoplasm and membrane, while grey spots show the vesicles formed at the surface, if any.
In this example, cancer cells loaded with nanoparticles were magnetically separated and resuspended in different media, such as culture medium (DMEM), DMEM with 5% Ethanol, or DMEM with 75% deionized water. Each medium was used to verify different aspects of this method: DMEM was used as a control, ethanol was used as a cytotoxic agent, and, to promote stress through cell swelling, we used a large proportion of DI water, reversing the ionic balance between the inside and outside of the cell. Note that a large concentration of salt in solution has the opposite effect on the cell, namely shrinking it. The cells in suspension were then pipetted onto a LIVE CELL ARRAY plate (NUNC), where the array has 100 μm wide wells, which provide adequate compartments for single cells to rotate and be analyzed. Optical scattering signals were recorded and the changes in the rotation period were measured for the different media (FIG. 2).
Cell swelling generally occurs because of the osmotic pressure created either by an ionic imbalance, as mentioned earlier, or by a lack of nutrients. Either way, the cell expands to cope with the imbalance of the chemicals it needs for maintaining its metabolism. To reach ionic disparity, we used DI water (FIG. 2B).

Row | Structure (SMILES) | rise of cell rotation period (Cisplatin 100 ug/ml (red line on FIG. 2D)) [%] | time for blebs to appear at the surface of the cell (Cisplatin at 100 ug/ml) | cell death (single HeLa cell in DMEM with 100 ug/ml Cisplatin) | time for blebs to appear at the surface of the cell (5% ethanol in DMEM) | rise of cell rotation period (5% ethanol in DMEM (FIG. 2C)) [%] | cell death (single HeLa cell in DMEM with 5% ethanol)
1 | N.N.[Cl][Pt][Cl] [Cisplatin] | 550 | several hours | cell death is provoked | – | – | –
2 | CCO [ethanol] | – | – | – | around 30 minutes | 550 | cell death is provoked
